Measured values taken from US8044051B2, “Methods and compositions for the production of high concentration alloxazine solutions” (CaridianBCT Biotechnologies, LLC, priority 2006, dated 2011).
Where “and” joins values, the source holds several entries; their conditions need not be identical. Equal entries are not always repeated.

Assays:
[1] = Concentration stability of riboflavin preparations over time (Example 4); type: physicochemical; conditions: stored at ambient temperature and pressure
Protocol: The concentration stability of riboflavin was measured over a period of time to determine its stability.
Various preparation of riboflavin were prepared.
Samples 1-3 were prepared by adding 10 mg riboflavin to 100 mL saline, heating at 37° C. for 30 minutes, mixing on a stir-plate for 20 minutes, and filtering through a 20 micron filter.
Sample 4 was made by adding 10 mg riboflavin to 100 mL saline, heating, and filtering through a 0.2 micron filter.
Sample 5 was prepared by adding 20 mg riboflavin to 100 mL saline, heating while mixing for 30 minutes, and filtering through a 0.2 micron filter.
Sample 6 was prepared by adding 5 mg riboflavin to 10 mL saline, heating in a water bath at 60° C. for 30 minutes, shaking vigorously for 30 seconds, and filtering through a 0.2 micron filter.
The concentration stability of riboflavin compositions are shown for each preparation. The riboflavin concentration of each experimental heat treated riboflavin sample is above that of the unheated control sample. Further, the concentration remains stable over a period of time when stored at ambient temperature and pressure.

[2] = Saturation point / solubility of riboflavin in aqueous medium at ambient temperature and pressure
Protocol: An amount of alloxazine is measured for combination with a solvent such as an aqueous medium or a combination of aqueous medium and a non-polar solvent.

[3] = Riboflavin concentration by absorbance after heated mixing in saline and filtration (Example 3); type: physicochemical
Protocol: Riboflavin (approximately 70 mg) was added to saline (approximately 200 mL) and continuously mixed on a hot plate. The container was covered, and the solution was mixed for 40 minutes. the solution was filtered through a 0.2 micron filter. The filtered solution was diluted 1:10 and its absorbance was measured.
3 mL of the riboflavin and 147 mL saline were combined. […] 30 mL of the riboflavin/saline solution was transferred to each of four 75 cm^2 flasks, which were irradiated two at a time.

Cc1cc2nc3c(=O)[nH]c(=O)nc-3n(C[C@H](O)[C@H](O)[C@H](O)CO)c2cc1C [riboflavin derivative alpha]
concentration stability over time [1]: stable over time | solubility compared to untreated riboflavin ([2]; room temperature): increased solubility

Cc1cc2nc3c(=O)[nH]c(=O)nc-3n(C[C@H](O)[C@H](O)[C@H](O)CO)c2cc1C [riboflavin, 7,8-dimethyl-10-ribityl isoalloxazine]
concentrations of riboflavin solutions ([3]; Example 3 riboflavin solutions): 515 µM and 528 µM | riboflavin decomposition (spectrum) ([3]; after heated mixing 40 minutes and filtration): no evidence of riboflavin decomposition | riboflavin concentration ([3]; approx. 70 mg in approx. 200 mL saline, mixed on hot plate 40 minutes, 0.2 micron filtered, absorbance of 1:10 dilution): 540 µM | saturation point concentration of riboflavin ([2]; 22° C. and 1 atmosphere pressure, aqueous medium, untreated): 114 µM
